Data published in publication PMC11740726 (PNAS Nexus, 2025).
“And” between values parts separate entries of the source, which are not always exact repeats. Equal values may be shown once. Read-outs that look alike come from different tables or passages of the source.

What was measured:
SARS-CoV-2^BQ.1.1 = experiment: microbe, parasite or virus in culture; format: cell-based; conditions: Severe acute respiratory syndrome coronavirus 2, read-out: Against SARS-CoV-2 variants EC50, Omicron BQ.1.1
SARS-CoV-2 Omicron BA.5 = experiment: microbe, parasite or virus in culture; format: cell-based; conditions: Severe acute respiratory syndrome coronavirus 2, read-out: Against SARS-CoV-2 variants EC50, Omicron BA.5
[1] = test system: SARS-CoV-2 Omicron BA.2.75; experiment: microbe, parasite or virus in culture; format: cell-based; conditions: Severe acute respiratory syndrome coronavirus 2, read-out: Against SARS-CoV-2 variants EC50, Omicron BA.2.75
[2] = test system: SARS-CoV-2 Omicron XBB.1.5; experiment: microbe, parasite or virus in culture; format: cell-based; conditions: Severe acute respiratory syndrome coronavirus 2, read-out: Against SARS-CoV-2 variants EC50, Omicron XBB.1.5
[3] = test system: SARS-CoV-2 Omicron EG.5.1; experiment: microbe, parasite or virus in culture; format: cell-based; conditions: Severe acute respiratory syndrome coronavirus 2, read-out: Against SARS-CoV-2 variants EC50, Omicron EG.5.1
[4] = test system: six various Omicron variants (BA.5, BA.2.75, BQ.1.1, XBB, XBB.1.5, and EG.5.1); experiment: microbe, parasite or virus in culture; format: cell-based, SARS-CoV-2; conditions: Severe acute respiratory syndrome coronavirus 2, read-out: EC50 values ranging over all six Omicron variants
SARS-CoV-2^E166V-P14 [5] = format: cell-based; conditions: read-out: EC50, SARS-CoV-2^E166V-P14, HeLa^hACE2-TMPRSS2
rgSARS-CoV-2^WT = experiment: microbe, parasite or virus in culture; format: cell-based; conditions: Severe acute respiratory syndrome coronavirus 2, Vero C1008, read-out: EC50, rgSARS-CoV-2^WT, VeroE6 +2μM CP-100356
rgSARS-CoV-2^E166V = format: cell-based, SARS-CoV-2; conditions: read-out: EC50, rgSARS-CoV-2^E166V, VeroE6 +2μM CP-100356
SARS-CoV-2 Omicron XBB = experiment: microbe, parasite or virus in culture; format: cell-based; conditions: Severe acute respiratory syndrome coronavirus 2, read-out: Against SARS-CoV-2 variants EC50, Omicron XBB
SARS-CoV-2^E166V-P14 [6] = format: cell-based; conditions: read-out: EC50, SARS-CoV-2^E166V-P14, VeroE6 +2μM CP-100356

| SMILES | EC50 (SARS-CoV-2^BQ.1.1) [µM] | EC50 (SARS-CoV-2 Omicron BA.5) [µM] | EC50 [1] [µM] | EC50 [2] [µM] | EC50 [3] [µM] | EC50 [4] [µM] | EC50 (SARS-CoV-2^E166V-P14 [5]) | EC50 (rgSARS-CoV-2^WT) [µM] | EC50 (rgSARS-CoV-2^E166V) [µM] | EC50 (SARS-CoV-2 Omicron XBB) [µM] | EC50 (SARS-CoV-2^E166V-P14 [6]) [µM] |
| --- | --- | --- | --- | --- | --- | --- | --- | --- | --- | --- | --- |
| CC(C)(C)[C@H](NC(=O)C(F)(F)F)C(=O)N1C[C@H]2[C@@H]([C@H]1C(=O)N[C@H](C#N)C[C@@H]1CCNC1=O)C2(C)C [Nirmatrelvir, reference compound] | 0.05 ± 0.02 | 0.75 ± 0.22 | 0.3 ± 0.22 | 0.21 ± 0.28 | 0.13 ± 0.02 | 0.02 to 0.75 | 1.42 µM | 0.026 ± 0.005 | 1.3 | – | – |
| CC(C)(C)[C@H](NC(=O)C(F)(F)F)C(=O)N1C[C@H]2[C@@H]([C@H]1C(=O)N[C@@H](C[C@@H]1CCNC1=O)C(=O)c1nc3c(F)cccc3s1)C2(C)C [TKB245] | – | 0.023 ± 0.009 | 0.027 ± 0.003 | 0.035 ± 0.018 | 0.009 ± 0.001 | 0.006 to 0.038 | – | – | – | 0.006 ± 0.003 | – |
| CC(C)(C)[C@H](NC(=O)C(F)(F)F)C(=O)N1C[C@H]2[C@@H]([C@H]1C(=O)N[C@@H](C[C@@H]1CCNC1=O)C(=O)c1nc3cc(F)ccc3s1)C2(C)C [TKB272] | 0.003 ± 0.001 | 0.008 ± 0.001 | 0.006 ± 0.003 | 0.005 ± 0.002 | 0.007 ± 0.001 | 0.003 to 0.008 | 0.0513 µM and 0.051 µM | 0.003 | 0.022 | 0.003 ± 0.001 | – |
| Cn1cnc(Cn2c(=O)[nH]/c(=N\c3cc4cn(C)nc4cc3Cl)n(Cc3cc(F)c(F)cc3F)c2=O)n1 [Ensitrelvir, reference compound] | 0.07 ± 0.02 | 0.2 ± 0.04 | 0.14 ± 0.06 | 0.22 ± 0.09 | 0.21 ± 0.09 | 0.06 to 0.22 | – | – | – | 0.06 ± 0.02 | 0.54 |
| CC(C)C(=O)OC[C@H]1O[C@@H](n2ccc(NO)nc2=O)[C@H](O)[C@@H]1O [molnupiravir, reference compound] | – | – | – | – | – | – | – | – | – | – | 0.75 |
